Results as given in patent US10336763B1, “Crystal form B of ribociclib succinate” (Chunghwa Chemical Synthesis & Biotech Co. Ltd., priority 2018, dated 2019).

Assay: crystalline stability in constant temperature and humidity chamber
Format: physicochemical
[1] = 25° C./75% RH, summary of 1 to 7 days
[2] = 80° C./75% RH, summary of 1 to 7 days
[3] = powder exposed to 25° C., 75%RH, 1 day
[4] = powder exposed to 25° C., 75%RH, 3 days
[5] = powder exposed to 25° C., 75%RH, 7 days
[6] = powder exposed to 80° C., 75%RH, 1 day
[7] = powder exposed to 80° C., 75%RH, 3 days
[8] = powder exposed to 80° C., 75%RH, 7 days

Row | SMILES | crystalline form (crystalline stability) [1] | crystalline form (crystalline stability) [2] | crystalline form (crystalline stability) [3] | crystalline form (crystalline stability) [4] | crystalline form (crystalline stability) [5] | crystalline form (crystalline stability) [6] | crystalline form (crystalline stability) [7] | crystalline form (crystalline stability) [8]
1 | CN(C)C(=O)c1cc2cnc(Nc3ccc(N4CCNCC4)cn3)nc2n1C1CCCC1.O=C(O)CCC(=O)O [Ribociclib succinate in crystalline form A] [butanedioicacid-7-cyclopentyl-N,N-dimethyl-2-[(5-piperazin-1-ylpyridin-2-yl)amino]pyrrolo[2,3-D]pyrimidine-6-carboxamide] | maintained its crystalline form | transformed from crystalline form A to crystalline form B | Stayed as A | Stayed as A | Stayed as A | Transformed from A to B | Transformed from A to B | Transformed from A to B
2 | CN(C)C(=O)c1cc2cnc(Nc3ccc(N4CCNCC4)cn3)nc2n1C1CCCC1.O=C(O)CCC(=O)O [Ribociclib succinate in crystalline form B] [butanedioicacid-7-cyclopentyl-N,N-dimethyl-2-[(5-piperazin-1-ylpyridin-2-yl)amino]pyrrolo[2,3-D]pyrimidine-6-carboxamide] | maintained its crystalline form and did not transform to other crystalline forms | maintained its crystalline form and did not transform to other crystalline forms | Stayed as B | Stayed as B | Stayed as B | Stayed as B | Stayed as B | Stayed as B
